US11497761B2, “Compositions for the treatment of metastatic cancer” (priority 2019, dated 2022)

Columns and labels:
[1] = system: iCTCs from prostate cancer patients; test: iCTC drug response (CDR) testing ex vivo, Project 1 Study-Prostate Cancer; assay type: cell-based, human; details: for number of live iCTCs remaining after treatment: 72 hours
Protocol: Materials for Project 1 Study-Prostate Cancer • Blood collection tubes: BD Vacutainer® 10 mL sodium heparin tube (BD catalog #367874)). • Vita-Assay™ AN6W plate. • Blood: prostate cancer, up to 40-mL blood was collected from patients and provided by Conversant bio. • Stock Solution and Dilutions • Monolaurin, 4.78 mM with 0.75% PS-80 (Stock Solution C), 13.1 mg monolaurin in 0.25 mL PS-80 and 0.75 mL water and 0.1 mL of this solution was diluted with 0.9 mL of RPMI. Stock solutions were stable for 2 weeks at 4 degrees C. Monolaurin used is an equal mixture of 1-, 2-, and 3-isomers of monolaurin. • Dilution: Monolaurin: Add 209.2 uL, 627.6 uL, and 1.2552 mL of CPI-2400 in 0.75% PS-80 (Stock solution C) and dilute to 10 mL of media to achieve final concentrations of 100 uM, 200 uM, and 300 uM final concentrations of drug cell exposure respectively.
With respect to FIG. 1, a depiction of a generalized experimental scheme for testing efficacy of a composition in accordance with an exemplary embodiment of the present invention against iCTC from the blood of prostate cancer patients is shown. Invasive circulating tumor cells (iCTCs) were obtained from venous blood of the individual with advanced prostate cancer, cultured and exposed to a specific drug or battery of drugs at 1×, 2×, and 3× concentrations in vitro for 3 days. Drug responsiveness was measured by automatic flow cytometry using the reduction of live iCTCs in the treated samples from the number of live iCTCs in the untreated controls. The greater the reduction of iCTCs of a given drug at a given dose indicates greater responsiveness to that dose of the drug. Four AN6W plates were used for each sample. Control and drug at each dose in triplicate were incubated for 72 hours. The iCTCs were measured by flow cytometry and viewed by microscopy as described. The complete culture medium contains 10% fetal bovine serum.
The complete experimental procedure for The Project 1 Study-Prostate Cancer followed the same procedure as that used with respect to The Project 1 Study-Pancreatic Cancer. With reference to FIGS. 5 and 6, flow cytometry evaluation: Count tumor cells and immune cells by using a 4-channel (FITC, PE, APC, and 7AAD) flow cytometer. iCTC is defined as: EPI^+TP^+CD45^−[…] • FIG. 5 depicts images of solitary and clustered iCTCs with specific markers in a cytospin preparation of the RP-19 sample. […] Pink arrows indicated iCTC clusters. A tumor cell was positively stained with green fluorescence-epithelial marker (GF-Epi), blue fluorescence nucleic acid dye (BF-Hoechst) and red fluorescence tumor progenitor (TP) marker (RF-TP). White arrows indicate WBCs that were not stained by Epi and TP tumor markers. Bar=40 μm. Cells from RP-19 were cultured for 3 days before staining.

[2] = Stability of monolaurin stock solution; assay type: physicochemical; details: 4.78 mM with 0.75% PS-80 (Stock Solution C), 4 degrees C
Protocol: Materials for Project 1 Study-Pancreatic Cancer • Blood collection tubes: BD Vacutainer® 10 mL sodium heparin tube (BD catalog #367874)). • Vita-Assay™ AN6W plate. • Blood: pancreatic cancer, up to 40-mL blood collected from patients and provided by Conversant Bio. • Stock solution and dilutions • Monolaurin 4.78 mM with 0.75% PS-80 (Stock Solution C), 13.1 mg monolaurin in 0.25 mL PS-80 and 0.75 mL water and 0.1 mL of this solution was diluted with 0.9 mL of RPMI. Stocks are stable for 2 weeks at 4 degrees C. Monolaurin used is an equal mixture of 1-, 2-, and 3-isomers of monolaurin. • Monolaurin dilution: add 209.2 uL, 627.6 uL, and 1.2552 mL of monolaurin in 0.75% PS-80 (Stock solution C), and dilute to 10 mL of media to achieve final concentrations of 100 uM, 200 uM, 300 uM as indicated.
Materials for Project 1 Study-Prostate Cancer • Blood collection tubes: BD Vacutainer® 10 mL sodium heparin tube (BD catalog #367874)). • Vita-Assay™ AN6W plate. • Blood: prostate cancer, up to 40-mL blood was collected from patients and provided by Conversant bio. • Stock Solution and Dilutions • Monolaurin, 4.78 mM with 0.75% PS-80 (Stock Solution C), 13.1 mg monolaurin in 0.25 mL PS-80 and 0.75 mL water and 0.1 mL of this solution was diluted with 0.9 mL of RPMI. Stock solutions were stable for 2 weeks at 4 degrees C. […]

[3] = system: Ehrlich ascites tumor cells; details: in vitro, Kato et al. 1971; cited from earlier work
[4] = system: primary human T-cell signaling; details: in vitro, cited from earlier work

CCCCCCCCCCCC(=O)OCC(O)CO (stereo not drawn) [Monolaurin, glycerol monolaurate]
kill rates of iCTCs (summary) ([1]; iCTCs from prostate cancer patients): high kill rates | number of live iCTCs remaining after treatment ([1]; patient RP02 (Taxotere), iCTC control 450, 100 uM monolaurin): 0 | number of live iCTCs remaining after treatment ([1]; patient RP02 (Taxotere), iCTC control 450, 200 uM monolaurin): 0 | number of live iCTCs remaining after treatment ([1]; patient RP02 (Taxotere), iCTC control 450, 300 uM monolaurin): 0 | number of live iCTCs remaining after treatment ([1]; patient RP06 (Taxotere), iCTC control 40, 100 uM monolaurin): 10 | number of live iCTCs remaining after treatment ([1]; patient RP06 (Taxotere), iCTC control 40, 200 uM monolaurin): 0 | number of live iCTCs remaining after treatment ([1]; patient RP06 (Taxotere), iCTC control 40, 300 uM monolaurin): 0 | number of live iCTCs remaining after treatment ([1]; patient RP07 (Taxotere), iCTC control 200, 100 uM monolaurin): 0 | number of live iCTCs remaining after treatment ([1]; patient RP07 (Taxotere), iCTC control 200, 200 uM monolaurin): 0 | number of live iCTCs remaining after treatment ([1]; patient RP07 (Taxotere), iCTC control 200, 300 uM monolaurin): 0 | number of live iCTCs remaining after treatment ([1]; patient RP08 (Taxotere), iCTC control 60, 100 uM monolaurin): 0 | number of live iCTCs remaining after treatment ([1]; patient RP08 (Taxotere), iCTC control 60, 200 uM monolaurin): 0 | number of live iCTCs remaining after treatment ([1]; patient RP08 (Taxotere), iCTC control 60, 300 uM monolaurin): 0 | number of live iCTCs remaining after treatment ([1]; patient RP09 (Taxotere), iCTC control 225, 100 uM monolaurin): 0 | number of live iCTCs remaining after treatment ([1]; patient RP09 (Taxotere), iCTC control 225, 200 uM monolaurin): 0 | number of live iCTCs remaining after treatment ([1]; patient RP09 (Taxotere), iCTC control 225, 300 uM monolaurin): 0 | number of live iCTCs remaining after treatment ([1]; patient RP13 (Taxotere), iCTC control 75, 100 uM monolaurin): 0 | number of live iCTCs remaining after treatment ([1]; patient RP13 (Taxotere), iCTC control 75, 200 uM monolaurin): 0 | number of live iCTCs remaining after treatment ([1]; patient RP13 (Taxotere), iCTC control 75, 300 uM monolaurin): 0 | number of live iCTCs remaining after treatment ([1]; patient RP15 (Taxotere), iCTC control 50, 100 uM monolaurin): 20 | number of live iCTCs remaining after treatment ([1]; patient RP15 (Taxotere), iCTC control 50, 200 uM monolaurin): 10 | number of live iCTCs remaining after treatment ([1]; patient RP15 (Taxotere), iCTC control 50, 300 uM monolaurin): 0 | number of live iCTCs remaining after treatment ([1]; patient RP19 (Taxotere), iCTC control 425, 100 uM monolaurin): 50 | number of live iCTCs remaining after treatment ([1]; patient RP19 (Taxotere), iCTC control 425, 200 uM monolaurin): 50 | number of live iCTCs remaining after treatment ([1]; patient RP19 (Taxotere), iCTC control 425, 300 uM monolaurin): 0 | number of live iCTCs remaining after treatment ([1]; patient RP20 (Taxotere), iCTC control 50, 100 uM monolaurin): 20 | number of live iCTCs remaining after treatment ([1]; patient RP20 (Taxotere), iCTC control 50, 200 uM monolaurin): 10 | number of live iCTCs remaining after treatment ([1]; patient RP20 (Taxotere), iCTC control 50, 300 uM monolaurin): 5 | number of live iCTCs remaining after treatment ([1]; patient RP212 (Taxotere), iCTC control 55, 100 uM monolaurin): 30 | number of live iCTCs remaining after treatment ([1]; patient RP212 (Taxotere), iCTC control 55, 200 uM monolaurin): 10 | number of live iCTCs remaining after treatment ([1]; patient RP212 (Taxotere), iCTC control 55, 300 uM monolaurin): 10 | number of live iCTCs remaining after treatment ([1]; patient Rp05 (Taxotere), iCTC control 20, 100 uM monolaurin): 15 | number of live iCTCs remaining after treatment ([1]; patient Rp05 (Taxotere), iCTC control 20, 200 uM monolaurin): 0 | number of live iCTCs remaining after treatment ([1]; patient Rp05 (Taxotere), iCTC control 20, 300 uM monolaurin): 0 | stock solution stable for [2]: 2 weeks | anticancer activity [3]: only weak activity | concentration interfering with activated T cell adhesion and actin organization ([4]; formulated in 95% ethanol): 10 to 20 µg/mL | concentration interfering with activated T cell adhesion and actin organization (equivalent) ([4]; formulated in 95% ethanol): 36 to 73 µM | concentrations inhibiting primary human T-cell signaling [4]: 36 to 73 µM
